Measured values from publication PMC9558617 (ACS infectious diseases, 2022).
≈ marks a conversion by molar mass, not a printed value.

Legend:
Type in all cases: cell-based, Mycobacterium tuberculosis
[1] = test system: Q112-resistant Mtb strains; assay: microbe, parasite or virus in culture
Mtb strain B3 tatA = test system: Mtb strain B3 tatA
Mtb strain B2 tatC = test system: Mtb strain B2 tatC
Mtb strain B1 tatC = test system: Mtb strain B1 tatC
Mtb strain A6 tatB = test system: Mtb strain A6 tatB
Mtb strain A3 tatB = test system: Mtb strain A3 tatB

## CC1(C)S[C@@H]2[C@H](NC(=O)[C@H](N)c3ccccc3)C(=O)N2[C@H]1C(=O)O [Ampicillin]
[1]
  factor of MIC decrease (hypersensitivity) versus wild-type: > 16 factor
[1]; Mycobacterium tuberculosis
  MIC: 1.6 to 3.1 µM (≈ 0.559 to 1.08 µg/mL)

## CC(C)/N=c1\cc2n(-c3ccc(Cl)cc3)c3ccccc3nc-2cc1Nc1ccc(Cl)cc1 [Clofazimine]
Mtb strain B3 tatA
  resistance (MIC increase) versus wild-type: 4 fold

## C[C@]1(COc2ccc(N3CCC(Oc4ccc(OC(F)(F)F)cc4)CC3)cc2)Cn2cc([N+](=O)[O-])nc2O1 [Delamanid]
[1]
  MIC increase versus wild-type: 3–12 fold

## C[C@@H](O)[C@H]1C(=O)N2C(C(=O)O)=C(SCCN=CN)C[C@H]12 [Imipenem]
Mtb strain B3 tatA
  resistance (MIC increase) versus wild-type: 16 fold

## CO[C@H]1/C=C/O[C@@]2(C)Oc3c(C)c(O)c4c(O)c(c(/C=N/N5CCN(C)CC5)c(O)c4c3C2=O)NC(=O)/C(C)=C\C=C\[C@H](C)[C@H](O)[C@@H](C)[C@@H](O)[C@@H](C)[C@H](OC(C)=O)[C@@H]1C [Rifampicin]
[1]
  factor of MIC decrease (hypersensitivity) versus wild-type: 3–6 factor

## CN[C@H](CC(C)C)C(=O)N[C@H]1C(=O)N[C@@H](CC(N)=O)C(=O)N[C@H]2C(=O)N[C@H]3C(=O)N[C@H](C(=O)N[C@H](C(=O)O)c4cc(O)cc(O)c4-c4cc3ccc4O)[C@H](O)c3ccc(c(Cl)c3)Oc3cc2cc(c3O[C@@H]2O[C@H](CO)[C@@H](O)[C@H](O)[C@H]2O[C@H]2C[C@](C)(N)[C@H](O)[C@H](C)O2)Oc2ccc(cc2Cl)[C@H]1O [Vancomycin]
[1]
  factor of MIC decrease (hypersensitivity) versus wild-type: 4–5 factor

## Capreomycin
Mtb strain B2 tatC
  MIC B2 tatC: 1.2 µM
Mtb strain B1 tatC
  MIC B1 tatC: 0.78 µM
Mtb strain B3 tatA
  MIC B3 tatA: 0.78 µM
Mtb strain A6 tatB
  MIC A6 tatB: 1.2 µM
Mtb strain A3 tatB
  MIC A3 tatB: 0.78 µM
